Reference: patent US20190308933A1, “PHENYLAMIDINES AND THE USE THEREOF AS FUNGICIDES” (priority 2016, published 2019)
Like-named read-outs stand apart in the source and are kept apart here.

What was measured:
Phakopsora pachyrhizi = assay: In vivo preventive test on Phakopsora (soybeans); set-up: species or system Phakopsora pachyrhizi (soybean rust) on soybeans; details: 168 h, young soybean plants sprayed, 10 ppm of active ingredient, evaluated 7 days after inoculation, 0% = untreated control, 100% = no disease, read-out: efficacy
Description: Example: In Vivo Preventive Test on Phakopsora Test (Soybeans)
To produce a suitable preparation of active compound, 1 part by weight of active compound is mixed with the stated amounts of solvent and emulsifier, and the concentrate is diluted with water to the desired concentration.
To test for preventive activity, young plants are sprayed with the preparation of active compound at the stated rate of application. After the spray coating has dried on, the plants are inoculated with an aqueous spore suspension of the causal agent of soybean rust (Phakopsora pachyrhizi) and stay for 24 h without light in an incubation cabinet at approximately 24° C. and a relative atmospheric humidity of 95%.
The plants remain in the incubation cabinet at approximately 24° C. and a relative atmospheric humidity of approximately 80% and a day/night interval of 12 h.
The test is evaluated 7 days after the inoculation. 0% means an efficacy which corresponds to that of the untreated control, while an efficacy of 100% means that no disease is observed.

[1] = Log P measurement by HPLC on reversed phase columns (EEC directive 79/831 Annex V.A8); assay type: physicochemical; details: reversed phase HPLC column, LC-UV
Description: [table] Measurement of Log P values was performed according to EEC directive 79/831 Annex V.A8 by HPLC (High Performance Liquid Chromatography) on reversed phase columns with the following methods: If more than one Log P value is available within the same method, all the values are given and separated by “+”. […] Lambda-max-values were determined using UV-spectra from 200 nm to 400 nm and the peak values of the chromatographic signals.

[2] = acidic range, 0.1% formic acid in water and acetonitrile as eluent (linear gradient 10% to 95% acetonitrile), read-out: LogP [a]
[3] = neutral range, 0.001 molar ammonium acetate solution in water and acetonitrile as eluent (linear gradient 10% to 95% acetonitrile), read-out: LogP [b]

chromatographic logP [1, 2] | chromatographic logP [1, 3] | SMILES | pest or weed control at 10 ppm (Phakopsora pachyrhizi) [%]
1.92 | 5.31 | Cc1cc(N=CN(C)C(C)C)c(C)cc1Cc1ccc(F)cc1F [Example 12, N′-[4-[(2,4-difluorophenyl)methyl]-2,5-dimethylphenyl]-N-isopropyl-N-methylmethanimidamide] | 90 to 100
1.86 | 4.6 | CCN(C)C=Nc1cc(C)c(Cc2ccc(F)cc2F)cc1Cl [Example 21, N′-[2-chloro-4-[(2,4-difluorophenyl)methyl]-5-methylphenyl]-N-ethyl-N-methylmethanimidamide] | 90 to 100
